Source: patent US20080027125A1 (priority 2006, published 2008)
One block for each compound: values may come before it.

What was measured:
[1] = Form A compared with the amorphous form; Form B as stated; cited from earlier work
[2] = Storing at room temperature under 0-60% RH for 10 days, analysed by XRD and KF; assay type: physicochemical; conditions: for form found by XRD at the end of the storage time / water content after storage: room temperature
Method: Copper radiation of 1.5418 Å was used. The sample holder was a round standard aluminum sample holder with rough zero background. The scanning parameters were range: 2-40 degrees two-theta; scan mode: continuous scan; step size: 0.05 deg.; and a rate of 5 deg/min. The water content of the samples was determined by the method known as Karl Fisher (KF). […] Before and after the storage time the sample was analyzed by XRD. […] Before and after the storage time the sample was analyzed by XRD and KF.

[3] = Heating of Fluvastatin Sodium Form CVI in oven, analysed by XRD and KF; assay type: physicochemical
Method: (§1) In the following examples, the forms of Fluvastatin Sodium were identified using a Scintag X-ray powder diffractometer model X'TRA with a solid state detector. Copper radiation of 1.5418 Å was used. The sample holder was a round standard aluminum sample holder with rough zero background. The scanning parameters were range: 2-40 degrees two-theta; scan mode: continuous scan; step size: 0.05 deg.; and a rate of 5 deg/min. The water content of the samples was determined by the method known as Karl Fisher (KF).

[4] = Storing at room temperature under 100% RH for 10 days, analysed by XRD; assay type: physicochemical
Method: as §1, with “(KF). […] The samples stored under 100% RH had about 25% water content.” for “(KF).”

[5] = 0% RH, listed as fluvastatin Sodium Form CVI

SMILES: CC(C)n1c(/C=C/C(O)C[C@@H](O)CC(=O)O)c(-c2ccc(F)cc2)c2ccccc21 (stereo partly drawn) [form B, fluvastatin sodium]
- hygroscopicity [1]: low hygroscopicity

SMILES: CC(C)n1c(/C=C/C(O)C[C@@H](O)CC(=O)O)c(-c2ccc(F)cc2)c2ccccc21 (stereo partly drawn) [Form A, fluvastatin sodium]
- hygroscopicity [1]: less hygroscopic

- form found by XRD at the end of the storage time [2, 5]: Fluvastatin Sodium Form CVI
- water content after storage [2, 5]: 3%
- form found by XRD at the end of the storage time ([2]; 60% RH, listed as fluvastatin Sodium Form CVI): Fluvastatin Sodium Form CVI
- conversion into fluvastatin sodium Form LXVI ([2]; relative humidity about 0% to about 60%): ≤ 10%
- water content (KF) after heating ([3]; 80 C, 1 hour): about 2%
- water content (KF) after heating ([3]; 80 C, 1 hour, listed as Fluvastatin Na Form CVI): 2%
- conversion into fluvastatin sodium Form LXVI ([3]; heating to about 80° C. for about 1 hour): ≤ 10%
- form found by XRD after heating ([3]; oven, 80 C, 1 hour): Fluvastatin Sodium Form CVI
SMILES: CC(C)n1c(/C=C/C(O)C[C@@H](O)CC(=O)O)c(-c2ccc(F)cc2)c2ccccc21 (stereo partly drawn) [Form CVI, fluvastatin sodium]

- form found by XRD at the end of the storage time ([2]; 0% RH): amorphous Fluvastatin Sodium
- water content after storage ([2]; 0% RH): 4%
- form found by XRD at the end of the storage time ([2]; 60% RH): amorphous Fluvastatin Sodium
- water content after storage [4]: about 25%
- form found by XRD after storage ([4]; room temperature): Fluvastatin Na Form LXVI
SMILES: CC(C)n1c(/C=C/C(O)C[C@@H](O)CC(=O)O)c(-c2ccc(F)cc2)c2ccccc21 (stereo partly drawn) [amorphous fluvastatin sodium, fluvastatin sodium]
